Measured values published in publication PMC10977697 (PLOS ONE, 2024).
Bridges are numbered along the chain shown (N, C = ends). Where no end group is shown, it is not given here.

system: ApoL1; assay: Spot phage ELISA, ApoL1; format: binding, human; settings: ratio of signal for target protein over BSA background

| Substance | S/N |
| --- | --- |
| GCAFQFYLCKQDSDCLAGCVCGGTQSCG (also: bicyclic or more (positions not given here)) [ApoL1 EET I-II 38] | 11.5 |
| GCAFRRHVCKQDSDCLAGCVCDKSDGCG (also: bicyclic or more (positions not given here)) [ApoL1 EET I-II 25] | 25.7 |
| GCGFWKWMHGCKQDSDCLAGCVCGPNGFCG (also: bicyclic or more (positions not given here)) [ApoL1 EET I-II 46] | 3.9 |
| GCHFKVWWCKQDSDCLAGCVCDPAVICG (also: bicyclic or more (positions not given here)) [ApoL1 EET I-II 44] | 6.1 |
| GCHYRRNRWEQACKQDSDCLAGCVCQGMPKCG (also: bicyclic or more (positions not given here)) [ApoL1 EET I-II 18] | 38.3 |
| GCKFAKARCKQDSDCLAGCVCSPVRKCG (also: bicyclic or more (positions not given here)) [ApoL1 EET I-II 10] | 42.7 |
| GCKFHLWFCKQDSDCLAGCVCDPNGFCS (also: bicyclic or more (positions not given here)) [ApoL1 EET I-II 33] | 15.3 |
| GCKFKAHSCKQDSDCLAGCVCSGQDPGCG (also: bicyclic or more (positions not given here)) [ApoL1 EET I-II 30] | 18.9 |
| GCKFKCKQDSDCLAGCVCGHYDHCG (also: bicyclic or more (positions not given here)) [ApoL1 EET I-II 28] | 23.6 |
| GCKFKEWFCKQDSDCLAGCVCEHSQSCG (also: bicyclic or more (positions not given here)) [ApoL1 EET I-II 20] | 36.0 |
| GCKFKHFLCKQDSDCLAGCVCDDLQNCG (also: bicyclic or more (positions not given here)) [ApoL1 EET I-II 9] | 43.0 |
| GCKFKHWYCKQDSDCLAGCVCCPPNHYG [ApoL1 EET I-II 11] | 41.1 |
| GCKFKRHMCKQDSDCLAGCVCTVKQNCG (also: bicyclic or more (positions not given here)) [ApoL1 EET I-II 41] | 8.3 |
| GCKFKRWTCKQDSDCLAGCVCEQPGMCG (also: bicyclic or more (positions not given here)) [ApoL1 EET I-II 19] | 37.0 |
| GCKFKSFTCKQDSDCLAGCVCWDQDTCG (also: bicyclic or more (positions not given here)) [ApoL1 EET I-II 7] | 44.3 |
| GCKFKWHFCKQDSDCLAGCVCQPHETCG (also: bicyclic or more (positions not given here)) [ApoL1 EET I-II 36] | 12.4 |

system: PCSK9; assay: not given; format: binding, human; settings: ratio of signal for target protein over BSA background

| Substance | s/n ratio |
| --- | --- |
| GPTQSKYGMCGGIGYSGPTVCASGTTCQVLDPYTSQCLPGAS (disulfide 10-27, 21-37 (inferred)) [PCSK9FL_CBD2] | 26.8 |
| GPTQSNYGMCGGIGYSGPTVCASGTTCQVLYPTTSRCLPGAS (also: bicyclic or more (positions not given here)) [PCSK9FL_CBD1] | 17.7 |

same assay, conditions: spot phage ELISA signal-to-noise on PCSK9

| Substance | S/N |
| --- | --- |
| GCGYWFYEWFCKQDSDCLAGCVCDPNGFCG (disulfide (positions not given here)) [PCSK9 EET I-II 20] | 9.0 |
| GCGYWWKHWFCKQDSDCLAGCVCGPNGFCG (disulfide (positions not given here)) [PCSK9 EET I-II 10] | 12.1 |
| GCGYWWKQWFCKQDSDCLAGCVCGPNGFCG (disulfide (positions not given here)) [PCSK9 EET I-II 17] | 17.6 |
| GCGYWWRQWFCKQGSDCLAGCVCGPNGFCG (disulfide (positions not given here)) [PCSK9 EET I-II 7] | 20.9 |
| GCGYWWSTWFCKQDSDCLAGCVCGPNGFCG (disulfide (positions not given here)) [PCSK9 EET I-II 4] | 15.0 |
| GCGYWWVQWFCKQDSDCLAGCVCGPNGFCD (disulfide (positions not given here)) [PCSK9 EET I-II 11] | 19.1 |
| GCGYWWVQWFCKQDSDCLAGCVCGPNGFCD (disulfide (positions not given here)) [PCSK9 EET I-II 18] | 20.1 |
| GCGYWYRIWFCKQDSDCLAGCVCGPNGFCG (disulfide (positions not given here)) [PCSK9 EET I-II 9] | 9.4 |
| GCGYWYRVWFCKQDSDCLAGCVCQEPGPCG (disulfide (positions not given here)) [PCSK9 EET I-II 3] | 6.4 |
| GCHEGYWWRQWFCKQDSDCLAGCVCGPNGFCG (disulfide (positions not given here)) [PCSK9 EET I-II 19] | 20.5 |
| GCNLGYWWKQWFCKQDSDCLAGCVCERPRDCG (disulfide (positions not given here)) [PCSK9 EET I-II 2] | 6.1 |
| GCQQGYWWWYWFCKQDSDCLAGCVCGPNGFCG (disulfide (positions not given here)) [PCSK9 EET I-II 13] | 26.0 |
| GCSWVPYWCKQDSDCLAGCVCWEMVWCD (disulfide (positions not given here)) [PCSK9 EET I-II 6] | 7.0 |
| GCWWWGRIHCKQDSDCLAGWGQHCG (disulfide (positions not given here)) [PCSK9 EET I-II 15] | 44.9 |
| GCYHGYWYITWFCKQDSDCLAGCVCSQDEQCG (disulfide (positions not given here)) [PCSK9 EET I-II 14] | 17.0 |
| GPAHSLFGMCGGIDYSGPTVCASGTTCHVLNPTTSHCLPRAS (disulfide (positions not given here)) [PCSK9 CBD 8] | 5.0 |
| GPTHSTYGQCGGIGYSGQSVCASGTTCQVLWAALSWCLPGAS (disulfide (positions not given here)) [PCSK9 CBD 12] | 7.8 |
| GPTQSAFGPCGGIGYSGPTVCASGTTCQVLSPDVSQCLPGAS (disulfide (positions not given here)) [PCSK9 CBD 5] | 2.6 |
| GPTQSAYGQCGGIGYSGPTVCASGTTCQVLWPQVSWCLPGAS (disulfide (positions not given here)) [PCSK9 CBD 23] | 13.9 |
| GPTQSDYGMCGGIGYSGPTVCASGTTCQVLDPYTSQCLPGAS (disulfide (positions not given here)) [PCSK9 CBD 28] | 14.2 |
| GPTQSEYGMCGGIGYSGPTVCASGTTCQVLDPMTSQCLPGAS (disulfide (positions not given here)) [PCSK9 CBD 3] | 2.6 |

| Substance | S/N |
| --- | --- |
| GPTQSEYGMCGGIGYSGPTVCASGTTCQVLDPTTSQCLPGAS (disulfide (positions not given here)) [PCSK9 CBD 10] | 7.2 |
| GPTQSEYGMCGGIGYSGPTVCASGTTCQVLDPTTSQCLPGAS (disulfide (positions not given here)) [PCSK9 CBD 17] | 11.3 |
| GPTQSHYGLCGGIGYSGPTVCASGTTCQVLSPEFSQCLPGAS (disulfide (positions not given here)) [PCSK9 CBD 13] | 8.0 |
| GPTQSKYGMCGGIGYSGPTVCASGTTCQVLDPYTSQCLPGAS (disulfide (positions not given here)) [PCSK9 CBD 14] | 8.8 |
| GPTQSLFGMCGGIGYSGPTVCASGTTCQVLYPTTSRCLPGAS (disulfide (positions not given here)) [PCSK9 CBD 20] | 18.0 |
| GPTQSMCGMCGGIGYSGPTVCASGTTCQVLDPHTSQCLPGAS (disulfide (positions not given here)) [PCSK9 CBD 18] | 14.0 |
| GPTQSMYGMCGGIGYSGPTVCASGTTCQVLDPNTSQCLPGAS (disulfide (positions not given here)) [PCSK9 CBD 11] | 6.9 |
| GPTQSNYGMCGGIGYSGPTVCASGTTCQVLYPTTSRCLPGAS (disulfide (positions not given here)) [PCSK9 CBD 1] | 17.7 |
| GPTQSNYGMCGGIGYSGPTVCASGTTCQVLqPSTSRCLPGAS (disulfide) [PCSK9 CBD 16] | 11.6 |
| GPTQSNYGQCGGIGYSGPTVCASGTTCQVLWPAMSWCLPGAS (disulfide (positions not given here)) [PCSK9 CBD 15] | 14.0 |
| GPTQSNYGQCGGIGYSGPTVCASGTTCQVLqPAMSWCLPGAS (disulfide) [PCSK9 CBD 21] | 18.7 |
| GPTQSPGGICGGIGYSGPTVCASGTTCQVLSPEYSQCLPGAS (disulfide (positions not given here)) [PCSK9 CBD 19] | 15.8 |
| GPTQSQFGMCGGIGYSGPTVCASGTTCQVLDPTTSQCLPGAS (disulfide (positions not given here)) [PCSK9 CBD 2] | 2.5 |
| GPTQSTCGQCGGIGYSGPTVCASGTTCQVLWPTLSWCLPGAS (disulfide (positions not given here)) [PCSK9 CBD 27] | 20.8 |
| GPTQSTYGQCGGIGYSGPTVCASGTTCQVLGPALSWCLPGAS (disulfide (positions not given here)) [PCSK9 CBD 9] | 5.2 |
| GPTQSTYGQCGGIGYSGPTVCASGTTCQVLWPALSWCLPGAS (disulfide (positions not given here)) [PCSK9 CBD 22] | 15.0 |
| GPTQSTYGQCGGIGYSGPTVCASGTTCQVLWPALSWCLPGAS (disulfide (positions not given here)) [PCSK9 CBD 26] | 21.5 |
| GPTQSTYGRCGGIGYSGPTVCASGTTCQVLWPALSWCLPGAS (disulfide (positions not given here)) [PCSK9 CBD 4] | 3.7 |
| GPTQSVHGMCGGIGYSGPTVCASGTTCQVLDPFTSQCLPGAS (disulfide (positions not given here)) [PCSK9 CBD 24] | 14.8 |
| GPTQSVYGMCGGIGYSGPTVCASGTTCQVLDPTTSQCLPGAS (disulfide (positions not given here)) [PCSK9 CBD 25] | 14.9 |
| GPTQSYGQCGGIGYSGPTVCASGTTCQVLWPQVSWCLPGAST (disulfide (positions not given here)) [PCSK9 CBD 6] | 2.9 |
